According to the NIST ThermoML archive (doi:10.1016/j.tca.2005.08.036):
Numbers after ± are expanded uncertainties.

Experiment: mn = molality of the nth substance listed, in mol/kg
Details: Liquid, Capillary tube (Ostwald / Ubbelohde) method

## [I-].[Li+] [lithium iodide] + O
345.43 K, 40000 kPa, m1 = 2.16
  viscosity: 0.5015 ± 0.0047 mPa·s
347.42 K, 100 kPa, m1 = 0.2832
  viscosity: 0.394 ± 0.0039 mPa·s
347.42 K, 10000 kPa, m1 = 0.2832
  viscosity: 0.3976 ± 0.004 mPa·s
347.42 K, 40000 kPa, m1 = 0.2832
  viscosity: 0.4052 ± 0.004 mPa·s
348.24 K, 100 kPa, m1 = 3.089
  viscosity: 0.5101 ± 0.0048 mPa·s
348.24 K, 10000 kPa, m1 = 3.089
  viscosity: 0.5144 ± 0.0048 mPa·s
348.24 K, 40000 kPa, m1 = 3.089
  viscosity: 0.5255 ± 0.0049 mPa·s
363.94 K, 100 kPa, m1 = 3.089
  viscosity: 0.4275 ± 0.0041 mPa·s
363.94 K, 10000 kPa, m1 = 3.089
  viscosity: 0.4317 ± 0.0041 mPa·s
363.94 K, 40000 kPa, m1 = 3.089
  viscosity: 0.4435 ± 0.0042 mPa·s
364.95 K, 100 kPa, m1 = 2.16
  viscosity: 0.3905 ± 0.0039 mPa·s
364.95 K, 10000 kPa, m1 = 2.16
  viscosity: 0.3944 ± 0.0038 mPa·s
364.95 K, 40000 kPa, m1 = 2.16
  viscosity: 0.4048 ± 0.0039 mPa·s
367.05 K, 100 kPa, m1 = 0.2832
  viscosity: 0.3119 ± 0.0033 mPa·s
367.05 K, 10000 kPa, m1 = 0.2832
  viscosity: 0.3142 ± 0.0033 mPa·s
367.05 K, 40000 kPa, m1 = 0.2832
  viscosity: 0.3227 ± 0.0033 mPa·s
368.75 K, 100 kPa, m1 = 1.605
  viscosity: 0.3544 ± 0.0036 mPa·s
368.75 K, 10000 kPa, m1 = 1.605
  viscosity: 0.358 ± 0.0036 mPa·s
368.75 K, 40000 kPa, m1 = 1.605
  viscosity: 0.3678 ± 0.0036 mPa·s
368.79 K, 100 kPa, m1 = 0.16
  viscosity: 0.3014 ± 0.0032 mPa·s
368.79 K, 10000 kPa, m1 = 0.16
  viscosity: 0.3044 ± 0.0032 mPa·s
368.79 K, 40000 kPa, m1 = 0.16
  viscosity: 0.3128 ± 0.0033 mPa·s
369.35 K, 100 kPa, m1 = 0.08
  viscosity: 0.2968 ± 0.0032 mPa·s
369.35 K, 10000 kPa, m1 = 0.08
  viscosity: 0.2996 ± 0.0032 mPa·s
369.35 K, 40000 kPa, m1 = 0.08
  viscosity: 0.3079 ± 0.0032 mPa·s
369.49 K, 100 kPa, m1 = 0.6621
  viscosity: 0.3189 ± 0.0034 mPa·s
369.49 K, 10000 kPa, m1 = 0.6621
  viscosity: 0.3222 ± 0.0033 mPa·s
369.49 K, 40000 kPa, m1 = 0.6621
  viscosity: 0.3313 ± 0.0034 mPa·s
396.7 K, 10000 kPa, m1 = 0.08
  viscosity: 0.2301 ± 0.0026 mPa·s
396.7 K, 40000 kPa, m1 = 0.08
  viscosity: 0.2381 ± 0.0027 mPa·s
397.72 K, 10000 kPa, m1 = 2.16
  viscosity: 0.2921 ± 0.0031 mPa·s
397.72 K, 40000 kPa, m1 = 2.16
  viscosity: 0.3023 ± 0.0032 mPa·s
397.82 K, 10000 kPa, m1 = 0.16
  viscosity: 0.2304 ± 0.0026 mPa·s
397.82 K, 40000 kPa, m1 = 0.16
  viscosity: 0.2385 ± 0.0027 mPa·s
398.32 K, 10000 kPa, m1 = 0.2832
  viscosity: 0.2331 ± 0.0027 mPa·s
398.32 K, 40000 kPa, m1 = 0.2832
  viscosity: 0.2414 ± 0.0027 mPa·s
398.72 K, 10000 kPa, m1 = 3.089
  viscosity: 0.3165 ± 0.0033 mPa·s
398.72 K, 40000 kPa, m1 = 3.089
  viscosity: 0.3278 ± 0.0034 mPa·s
398.94 K, 10000 kPa, m1 = 1.605
  viscosity: 0.2713 ± 0.0029 mPa·s
398.94 K, 40000 kPa, m1 = 1.605
  viscosity: 0.2809 ± 0.003 mPa·s
399.03 K, 10000 kPa, m1 = 0.6621
  viscosity: 0.2447 ± 0.0028 mPa·s
399.03 K, 40000 kPa, m1 = 0.6621
  viscosity: 0.2534 ± 0.0028 mPa·s
421.45 K, 10000 kPa, m1 = 0.6621
  viscosity: 0.206 ± 0.0025 mPa·s
421.45 K, 40000 kPa, m1 = 0.6621
  viscosity: 0.2139 ± 0.0025 mPa·s
422.12 K, 10000 kPa, m1 = 0.08
  viscosity: 0.1885 ± 0.0023 mPa·s
422.12 K, 40000 kPa, m1 = 0.08
  viscosity: 0.1959 ± 0.0024 mPa·s
422.41 K, 10000 kPa, m1 = 3.089
  viscosity: 0.2666 ± 0.0029 mPa·s
422.41 K, 40000 kPa, m1 = 3.089
  viscosity: 0.277 ± 0.003 mPa·s
422.47 K, 10000 kPa, m1 = 1.605
  viscosity: 0.2275 ± 0.0026 mPa·s
422.47 K, 40000 kPa, m1 = 1.605
  viscosity: 0.2363 ± 0.0027 mPa·s
424.14 K, 10000 kPa, m1 = 0.2832
  viscosity: 0.1913 ± 0.0024 mPa·s
424.14 K, 40000 kPa, m1 = 0.2832
  viscosity: 0.1988 ± 0.0024 mPa·s
424.41 K, 10000 kPa, m1 = 2.16
  viscosity: 0.24 ± 0.0027 mPa·s
424.41 K, 40000 kPa, m1 = 2.16
  viscosity: 0.2494 ± 0.0028 mPa·s
424.49 K, 10000 kPa, m1 = 0.16
  viscosity: 0.1874 ± 0.0023 mPa·s
424.49 K, 40000 kPa, m1 = 0.16
  viscosity: 0.1947 ± 0.0024 mPa·s
444.25 K, 10000 kPa, m1 = 2.16
  viscosity: 0.2119 ± 0.0025 mPa·s
444.25 K, 40000 kPa, m1 = 2.16
  viscosity: 0.2206 ± 0.0026 mPa·s
447.54 K, 10000 kPa, m1 = 3.089
  viscosity: 0.2284 ± 0.0026 mPa·s
447.54 K, 40000 kPa, m1 = 3.089
  viscosity: 0.2383 ± 0.0027 mPa·s
447.94 K, 10000 kPa, m1 = 1.605
  viscosity: 0.1945 ± 0.0024 mPa·s
447.94 K, 40000 kPa, m1 = 1.605
  viscosity: 0.2029 ± 0.0024 mPa·s
448.75 K, 10000 kPa, m1 = 0.16
  viscosity: 0.1602 ± 0.0021 mPa·s
448.75 K, 40000 kPa, m1 = 0.16
  viscosity: 0.1674 ± 0.0022 mPa·s
449.02 K, 10000 kPa, m1 = 0.08
  viscosity: 0.1581 ± 0.0021 mPa·s
449.02 K, 40000 kPa, m1 = 0.08
  viscosity: 0.1648 ± 0.0022 mPa·s
449.06 K, 10000 kPa, m1 = 0.6621
  viscosity: 0.1725 ± 0.0022 mPa·s
449.06 K, 40000 kPa, m1 = 0.6621
  viscosity: 0.1802 ± 0.0023 mPa·s
449.71 K, 10000 kPa, m1 = 0.2832
  viscosity: 0.1622 ± 0.0021 mPa·s
449.71 K, 40000 kPa, m1 = 0.2832
  viscosity: 0.1696 ± 0.0022 mPa·s
472.45 K, 10000 kPa, m1 = 0.08
  viscosity: 0.1387 ± 0.002 mPa·s
472.45 K, 40000 kPa, m1 = 0.08
  viscosity: 0.1452 ± 0.002 mPa·s
472.92 K, 10000 kPa, m1 = 0.2832
  viscosity: 0.1429 ± 0.002 mPa·s
472.92 K, 40000 kPa, m1 = 0.2832
  viscosity: 0.1501 ± 0.0021 mPa·s
473.06 K, 10000 kPa, m1 = 1.605
  viscosity: 0.1699 ± 0.0022 mPa·s
473.06 K, 40000 kPa, m1 = 1.605
  viscosity: 0.1784 ± 0.0023 mPa·s
473.07 K, 10000 kPa, m1 = 2.16
  viscosity: 0.1815 ± 0.0023 mPa·s
473.07 K, 40000 kPa, m1 = 2.16
  viscosity: 0.19 ± 0.0023 mPa·s
473.46 K, 10000 kPa, m1 = 0.16
  viscosity: 0.1397 ± 0.002 mPa·s
473.46 K, 40000 kPa, m1 = 0.16
  viscosity: 0.1467 ± 0.002 mPa·s
473.71 K, 10000 kPa, m1 = 3.089
  viscosity: 0.1992 ± 0.0024 mPa·s
473.71 K, 40000 kPa, m1 = 3.089
  viscosity: 0.2091 ± 0.0025 mPa·s
474.98 K, 10000 kPa, m1 = 0.6621
  viscosity: 0.1497 ± 0.0021 mPa·s
474.98 K, 40000 kPa, m1 = 0.6621
  viscosity: 0.1572 ± 0.0021 mPa·s
522.7 K, 10000 kPa, m1 = 0.16
  viscosity: 0.1109 ± 0.0018 mPa·s
522.7 K, 40000 kPa, m1 = 0.16
  viscosity: 0.1182 ± 0.0018 mPa·s
523.42 K, 10000 kPa, m1 = 3.089
  viscosity: 0.1603 ± 0.0021 mPa·s
523.42 K, 40000 kPa, m1 = 3.089
  viscosity: 0.1711 ± 0.0022 mPa·s
523.72 K, 10000 kPa, m1 = 0.08
  viscosity: 0.1089 ± 0.0018 mPa·s
523.72 K, 40000 kPa, m1 = 0.08
  viscosity: 0.1163 ± 0.0018 mPa·s
524.07 K, 10000 kPa, m1 = 0.2832
  viscosity: 0.1123 ± 0.0018 mPa·s
524.07 K, 40000 kPa, m1 = 0.2832
  viscosity: 0.1199 ± 0.0018 mPa·s
524.86 K, 10000 kPa, m1 = 1.605
  viscosity: 0.1344 ± 0.0019 mPa·s
524.86 K, 40000 kPa, m1 = 1.605
  viscosity: 0.1433 ± 0.002 mPa·s
525.42 K, 10000 kPa, m1 = 0.6621
  viscosity: 0.1185 ± 0.0018 mPa·s
525.42 K, 40000 kPa, m1 = 0.6621
  viscosity: 0.1266 ± 0.0019 mPa·s
525.49 K, 10000 kPa, m1 = 2.16
  viscosity: 0.1435 ± 0.002 mPa·s
525.49 K, 40000 kPa, m1 = 2.16
  viscosity: 0.1531 ± 0.0021 mPa·s
